According to patent US12678463B2, “Activated mesenchymal stem cells for treating limb ischemia” (Cellin Technologies OÜ, priority 2019, dated 2026):

Key:
Format in all cases: cell-based, human
AdMSCs [1] = test: ELISA of secreted inflammatory factors in culture media of AdMSCs; details: for effect on CCL2 level / effect on CXCL8 level / effect on IL6 level: LPS-stimulated AdMSC cultures, 24 h; for secreted IL-1RN concentration / secreted IL6 concentration / secreted CXCL8 concentration / secreted CCL2 concentration: LPS-stimulated, AIDs-treated 24 h; for secreted IL-1RN concentration: control + LPS 61 ± 18; for secreted IL6 concentration: control + LPS 210 ± 22; for secreted CXCL8 concentration: control + LPS 2373 ± 109; for secreted CCL2 concentration: control + LPS 461 ± 19.9; for IL-1RN level in culture media over time / IL6 level in culture media over time: LPS-treated cultures, single treatment; for IL-1RN level in culture media over time: serum-deficient, 24, 48 and 72 h; for IL6 level in culture media over time: serum-deficient, 24, 48 and 72 h (prednisolone: at 72 h)
Description: FIG. 5. Changes of inflammatory factors in culture media. Secreted IL6, CXCL8, CCL2 and IL1RN levels were measured from the conditional media of control, LPS-stimulated, and LPS-stimulated and paracetamol or prednisolone-treated AdMSCs by ELISA at 24, 48 and 72 h and represented as normalized to control 24 h probe.
To mimic inflammatory conditions, AdMSCs were exposed to lipopolysaccharide (LPS) prior to AIDs treatments. […] Then, LPS-treated AdMSCs were exposed to AIDs to study their effect on cytokines in inflammatory conditions.

LPS-stimulated AdMSCs = test: RT-qPCR of inflammatory gene mRNA in LPS-stimulated AIDs-treated AdMSCs; details: 24 hours exposure, vs LPS-treated cells
Description: FIG. 4. Relative mRNA expression of inflammatory genes in LPS-stimulated and AIDs-treated for 24 h AdMSCs represented as heat map. Expression levels were measured in triplicates by RT-qPCR and normalized with GAPDH mRNA expression levels. Data from LPS-stimulated AIDs-treated AdMSCs were calculated as a relative fold difference compared to LPS-treated cells and converted to the log scale. The quantitative changes in gene expression are represented by shading: darker shade indicates up-regulation, whereas lighter shade indicates down-regulation. Expression data were visualized using GENE-E software.
FIG. 6. Heat map of the expression profile of inflammatory genes in LPS-stimulated and AIDs-treated AdMSCs. Inflammatory genes mRNA expression levels of LPS-stimulated and AIDs-treated for 48 h (A) and 72 h (B) AdMSCs were calculated as a fold difference compared to LPS-treated AdMSCs and represented as heat maps. Expression levels of inflammatory gene mRNAs were measured in triplicates by RT-qPCR, normalized with GAPDH mRNA levels and converted to the log scale. Positive values (darker shade) indicate higher expression, and negative values (lighter shade) lower expression relatively to the control LPS-treated AdMSCs.
Effects of AIDs on mRNA expression of inflammatory cytokines in AdMSCs were analyzed using RT-qPCR technique. Analyses results were visualized as a heat map graph using GENE-E platform (FIG. 4). Short-term treatment of AdMSCs by AIDs affected the expression of inflammatory cytokines. […] Expression of pro-inflammatory cytokines CCL2, CCL3, TNF, IL6, ILIA and ILIB was suppressed by ketoprofen and metamizole (Analgin™) treatments.
Effects of repeated AIDs treatments (48 and 72 h) on mRNA expression of cytokines in AdMSCs were analyzed using RT-qPCR technique. Differential expression of cytokine genes is represented as a heat map in FIG. 6. […] Upon exposure to various drugs, complex expression pattern of pro- and anti-inflammatory factors were observed. […] However, the stable induced expression of anti-inflammatory factors (IL4, TNFAIP6, IDO1) was not observed.

AdMSCs [2] = test: Cell cycle analysis by propidium iodide staining and flow cytometry; details: 24 h after treatment; for percentage of cells in G0/G1 phase: non-treated control 82%, paracetamol 4.4 mM, diclofenac 10 μM, metamizole 10 μM, ketoprofen 50 μM, prednisolone 0.1 μM; for percentage of cells in G2/M cell cycle phase: vs non-treated control
Description: FIG. 2. Cell cycle analysis of control and AIDs-treated AdMSCs. AIDs-treated and control AdMSCs were stained with propidium iodide (PI) 24 h after treatments and analyzed using flow cytometry by BD Accuri C6.
The percentage of cells in G0/1 phase was lower in the cultures treated with metamizole (Analgin™) (65%) and paracetamol (71%), whereas the percentage of cells in G2/M cell cycle phase was increased in these cultures (FIG. 2).

AdMSCs [3] = test: RT-qPCR of angiogenic marker mRNA in AIDs-treated AdMSCs; details: 24 h treatment, relative to untreated AdMSCs, normalized with GAPDH
Description: VEGFA, HGF, bFGF and TEK mRNA expression levels in AdMSCs treated with AIDs for 24 h were measured in triplicates by RT-qPCR and normalized with GAPDH mRNA expression levels. Data from AIDs-treated cells were calculated relatively to control untreated AdMSCs and results are represented in a log scale. Positive values indicated increased and negative values decreased mRNA levels compared to control untreated cells.
Numerous soluble factors produced by MSCs are involved in the regulation of angiogenesis and neovascularisation in vivo (Estrada et al., 2009). […] The effect of the AIDs on expression of angiogenic factors in AdMSCs was analyzed. Different AIDs affected the expression of angiogenic factors differently either stimulating or suppressing their expression.

AdMSCs [4] = test: ELISA of secreted inflammatory factors in culture media of AdMSCs; details: for secreted IL6 concentration / secreted CCL2 concentration / secreted IL-1RN concentration / secreted CXCL8 concentration: AIDs-treated 24 h; for secreted IL6 concentration: control 40 ± 2; for secreted CCL2 concentration: control 96 ± 3.2; for secreted IL-1RN concentration: control 2.3 ± 0.03; for secreted CXCL8 concentration: control 277 ± 12.7
AdMSCs [5] = test: WST-1 metabolic activity assay of AdMSCs treated with anti-inflammatory drugs; details: first 24 hours; metamizole 10 μM
Description: AdMSCs metabolic activity was measured at 1, 2, 3 and 5 days after the treatments.
During the first 48 hours, all analyzed AIDs stimulated the metabolic activity of AdMSCs.

[6] = standard culture conditions, no LPS
[7] = LPS-treated cultures, single treatment, serum-deficient, 24, 48 and 72 h

Structure (SMILES) | effect on CCL2 level (AdMSCs [1]) | effect on CXCL8 level (AdMSCs [1]) | effect on IL6 level (AdMSCs [1]) | secreted IL-1RN concentration (AdMSCs [1]) [pg/mL] | secreted IL6 concentration (AdMSCs [1]) [pg/mL] | secreted CXCL8 concentration (AdMSCs [1]) [pg/mL] | TGFβ1 and TGFβ3 mRNA expression (LPS-stimulated AdMSCs) | TGFβ2 mRNA expression (LPS-stimulated AdMSCs) | percentage of cells in G0/G1 phase (AdMSCs [2]) [%] | HGF mRNA expression (AdMSCs [3]) | TEK mRNA expression (AdMSCs [3]) | VEGFA mRNA expression (AdMSCs [3]) | bFGF mRNA expression (AdMSCs [3]) | secreted IL6 concentration (AdMSCs [4]; no LPS) [pg/mL] | secreted CCL2 concentration (AdMSCs [4]; no LPS) [pg/mL] | effect on synthesis and secretion of immunomodulatory factors (AdMSCs [4]; [6]) | secreted CCL2 concentration (AdMSCs [1]) [pg/mL] | expression of pro-inflammatory cytokines CCL2, CCL3, TNF, IL6, ILIA and ILIB (mRNA) (LPS-stimulated AdMSCs) | secreted IL-1RN concentration (AdMSCs [4]; no LPS) [pg/mL] | secreted CXCL8 concentration (AdMSCs [4]; no LPS) [pg/mL] | other results
O=C(O)Cc1ccccc1Nc1c(Cl)cccc1Cl [diclofenac] | no effect | stimulated | stimulated | 17 ± 2 | 390 ± 4 | 2807 ± 361 | suppressed | stimulated | 81 | no effect | no effect | no effect | no effect | 50 ± 1 | 64 ± 8.4 | minor effect |  |  |  |  | 
CC(C(=O)O)c1cccc(C(=O)c2ccccc2)c1 (centres unmarked) [ketoprofen] | no effect | stimulated | stimulated | 12 ± 0.5 | 440 ± 143 | 2509 ± 68 |  |  | 80 | up-regulation | up-regulation | up-regulation | up-regulation | 10 ± 1 | 165 ± 23.4 | minor effect | 451 ± 31.8 | suppressed | 0 | 301 ± 0.3 | 
Cc1c(N(C)CS(=O)(=O)O)c(=O)n(-c2ccccc2)n1C [metamizole (Analgin™), metamizole] | Inhibitory effect |  |  | 12 ± 1 | 180 ± 29 | 1816 ± 121 |  |  | 65 | up-regulation | up-regulation | up-regulation | up-regulation | 30 ± 1 | 109 ± 3.2 | minor effect | 313 ± 43.9 | suppressed | 3.9 ± 0.03 | 341 ± 4.7 | cellular metabolism (WST-1 metabolic activity) (AdMSCs [5]): significantly stimulated; percentage of cells in G2/M cell cycle phase (AdMSCs [2]): increased; effect on IL1RN expression (AdMSCs [4]; LPS-stimulated AdMSC cultures, 24 h): Inhibitory effect
CC(=O)Nc1ccc(O)cc1 [paracetamol] |  | significantly reduced | significantly reduced | 33 ± 9 | 90 ± 14 | 623 ± 41 | suppressed | stimulated | 71 | inhibited | strongly suppressed | inhibited | induced | 0 | 8 ± 0.4 | minor effect | 270 ± 29.9 |  | 11.0 ± 0.65 | 11 ± 0.1 | IL-1RN level in culture media over time (AdMSCs [1]): no significant effects; IL6 level in culture media over time (AdMSCs [1]): no significant effects; percentage of cells in G2/M cell cycle phase (AdMSCs [2]): increased; CCL2 level in culture media over time (AdMSCs [4]; [7]): lowered; CXCL8 level in culture media over time (AdMSCs [4]; [7]): no significant effects; CCL2 level in culture media compared to untreated cells (AdMSCs [4]; [6]): significant reduction; CXCL8/IL8 level in culture media compared to untreated cells (AdMSCs [4]; [6]): significant reduction; IL6 level in culture media compared to untreated cells (AdMSCs [4]; [6]): significant reduction
C[C@]12C=CC(=O)C=C1CC[C@@H]1[C@@H]2[C@@H](O)C[C@@]2(C)[C@H]1CC[C@]2(O)C(=O)CO [prednisolone] |  | significantly reduced | significantly reduced | 33 ± 2 | 50 ± 12 | 402 ± 51 |  |  | 77 | inhibited | opposite effect | inhibited | opposite effect | 30 ± 2 | 100 ± 12.2 | minor effect | 314 ± 23.2 |  | 7.3 ± 0.20 | 35 ± 0.1 | IL-1RN level in culture media over time (AdMSCs [1]): inhibited; IL6 level in culture media over time (AdMSCs [1]): moderately induced; CCL2 level in culture media over time (AdMSCs [4]; [7]): significantly stimulated
